Results published in ChEMBL document CHEMBL1131855, “Nonpeptidic SH2 inhibitors of the tyrosine kinase ZAP-70” (Bioorg Med Chem Lett, 1999).

Legend:
[1] = molecular target: Tyrosine-protein kinase SYK (Homo sapiens, UniProt P43405); assay: Affinity for Syk protein tyrosine kinase
[2] = molecular target: Proto-oncogene tyrosine-protein kinase Src (Homo sapiens, UniProt P12931); assay: Affinity for Src protein tyrosine kinase
[3] = molecular target: T1, Tyrosine-protein kinase ZAP-70 (Homo sapiens, UniProt P43403); assay: Affinity for Zeta-chain (TCR) associated protein kinase 70 kDa (ZAP70)
T1 sequence (P43403 whole entry): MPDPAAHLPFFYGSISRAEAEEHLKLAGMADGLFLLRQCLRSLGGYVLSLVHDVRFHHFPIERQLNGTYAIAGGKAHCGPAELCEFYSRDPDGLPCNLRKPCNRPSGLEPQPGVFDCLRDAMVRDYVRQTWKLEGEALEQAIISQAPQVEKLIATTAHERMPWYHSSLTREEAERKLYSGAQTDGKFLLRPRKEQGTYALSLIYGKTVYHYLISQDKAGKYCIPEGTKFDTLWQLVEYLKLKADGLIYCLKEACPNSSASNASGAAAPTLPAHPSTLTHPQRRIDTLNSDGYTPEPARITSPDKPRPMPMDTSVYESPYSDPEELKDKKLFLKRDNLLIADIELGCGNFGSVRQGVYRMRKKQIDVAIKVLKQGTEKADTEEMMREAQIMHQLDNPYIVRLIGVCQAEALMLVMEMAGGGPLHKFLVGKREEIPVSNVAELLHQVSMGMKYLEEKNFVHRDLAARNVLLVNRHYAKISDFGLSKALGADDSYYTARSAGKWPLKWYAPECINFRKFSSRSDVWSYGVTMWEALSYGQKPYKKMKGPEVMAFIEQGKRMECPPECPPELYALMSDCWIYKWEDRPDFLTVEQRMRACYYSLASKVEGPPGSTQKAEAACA

Chain of Proto-oncogene tyrosine-protein kinase Src (P12931 2-536 limits assumed): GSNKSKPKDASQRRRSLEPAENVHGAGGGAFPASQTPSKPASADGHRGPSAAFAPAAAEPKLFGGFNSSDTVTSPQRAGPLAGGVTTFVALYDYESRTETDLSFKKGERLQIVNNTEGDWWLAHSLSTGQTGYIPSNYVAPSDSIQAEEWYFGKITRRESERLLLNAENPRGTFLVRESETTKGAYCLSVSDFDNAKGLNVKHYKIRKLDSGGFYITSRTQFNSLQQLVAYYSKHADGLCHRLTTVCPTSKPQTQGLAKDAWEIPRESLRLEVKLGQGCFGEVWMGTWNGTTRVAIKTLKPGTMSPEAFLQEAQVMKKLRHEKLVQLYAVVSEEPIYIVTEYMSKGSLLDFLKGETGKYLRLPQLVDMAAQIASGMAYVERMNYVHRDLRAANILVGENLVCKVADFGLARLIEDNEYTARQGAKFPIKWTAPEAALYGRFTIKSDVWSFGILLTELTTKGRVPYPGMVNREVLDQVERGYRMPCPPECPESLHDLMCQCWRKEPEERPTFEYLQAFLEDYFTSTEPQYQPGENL

Row | Structure (SMILES) | IC50 [1] [µM] | IC50 [2] [µM] | IC50 [3] [µM]
1 | C[C@H](NC(=O)[C@@H](CC(=O)O)Cc1ccc(OP(=O)(O)O)cc1)c1nc(Cc2ccc(Cl)c(Cl)c2)no1 | > 500 | 53 | 
2 | C[C@H](NC(=O)Nc1cccc2cc(OP(=O)(O)O)ccc12)c1nc(Cc2ccc(Cl)c(Cl)c2)no1 | 310 | 198 | 
3 | C[C@H](NC(=O)CCc1ccc(OP(=O)(O)O)cc1)c1nc(Cc2ccc(Cl)c(Cl)c2)no1 | > 500 | 459 | 198
4 | C[C@H](NC(=O)c1cc2cc(OP(=O)(O)O)ccc2[nH]1)c1nc(Cc2ccc(Cl)c(Cl)c2)no1 | 434 | 81 | 
5 | CC(=O)N[C@@H](Cc1ccc(OP(=O)(O)O)cc1)C(=O)N[C@@H](C)c1nc(Cc2ccc(Cl)c(Cl)c2)no1 |  | 210 | 
6 | C[C@H](NC(=O)[C@H](Cc1ccc(OP(=O)(O)O)cc1)CS(=O)(=O)C(C)(C)C)c1nc(Cc2ccc(C(F)(F)F)cc2)no1 | > 500 | 205 | 
7 | C[C@H](NC(=O)[C@@H](CC(=O)O)Cc1ccc(OP(=O)(O)O)cc1)c1nc(Cc2ccc(C(F)(F)F)cc2)no1 | > 500 | 102 | 
8 | CC(=O)N[C@@H](Cc1ccc(OP(=O)(O)O)cc1)C(=O)N[C@@H](C)c1nc(Cc2ccc(C(F)(F)F)cc2)no1 |  | 72 | 
9 | O=C(O)C[C@@H](Cc1ccc(OP(=O)(O)O)cc1)C(=O)N[C@@H](CO)c1nc(Cc2ccc(Cl)c(Cl)c2)no1 | > 500 | 54 | 
